From patent US20120095052A1, “PAR-1 ANTAGONISM IN FED OR ANTACID-DOSED PATIENTS” (priority 2009, published 2012)
Where two headings read alike, the source gives them in different places.

Test: Clinical study of the effect of food and antacid on pharmacokinetics after a single oral 40 mg tablet in healthy subjects
Format: in vivo, human
Details: for Tmax / Cmax / half-life / AUC: single 40 mg oral tablet; for Tmax: median; for Cmax / half-life / AUC: po, 40 mg, mean
Method: and or the bisulfate salt thereof in healthy subjects was studied in a clinical trial. The primary objective of the study was to evaluate the effect of food (standardized high-fat breakfast) and antacid (increased gastric pH) on the pharmacokinetics (PK) of
and or the bisulfate salt thereof administered orally as a 40 mg tablet. A secondary objective was to evaluate the effect of meal timing relative to fasting on the PK of
The study was designed as a randomized, open-label, single-dose, parallel-group, single-center study conducted in healthy young adults in conformance with Good Clinical Practice. Healthy male and female subjects between the ages of 18 and 45 years with a body mass index of 19-32 kg/m^2 were eligible for enrollment. Eligible subjects were randomly assigned to receive a single 40 mg dose of
basis on Days 7, 14, 21, 28, 35, and 42 (±1 day) after dosing. The bioanalytical assay was an LC-MS/MS assay, LLOQ=1.00 ng/mL.

[1] = 40 mg tablet immediately with food vs fasted
[2] = 1 hr after food vs fasted, 40 mg tablet
[3] = 2 hr after food vs fasted, 40 mg tablet
[4] = Fed (immediately with food) vs fasted, 40 mg tablet
[5] = antacid co-administration vs alone, fasted subjects
[6] = fasted subjects, with antacid vs alone, 40 mg tablet

CCOC(=O)N[C@@H]1CC[C@@H]2[C@@H](C1)C[C@H]1C(=O)O[C@H](C)[C@H]1[C@H]2/C=C/c1ccc(-c2cccc(F)c2)cn1 [SCH 530348, ethyl [(R1R,3aR,4aR,6R,8aR,9S,9aS)-9-[(E)-2-[5-(3-fluorophenyl)-2-pyridinyl]ethenyl]-dodecahydro-1-methyl-3-oxonaphtho[2,3-c]furan-6-yl] carbamate]
increase of peak plasma concentration (Cmax) [1]: 31%
increase of systemic exposure (AUC[l]) [1]: 43%
Tmax (1 hour after food): 0.083 days
Ratio Estimate Fed vs Fasted, AUC(I) (relative bioavailability) [2]: 143
Ratio Estimate Fed vs Fasted, Cmax (relative bioavailability) [2]: 117
Tmax (2 hours after food): 0.083 days
Ratio Estimate Fed vs Fasted, AUC(I) (relative bioavailability) [3]: 127
Ratio Estimate Fed vs Fasted, Cmax (relative bioavailability) [3]: 137
Tmax (Fasted with antacid): 0.083 days
Ratio Estimate Fed vs Fasted, AUC(I) (relative bioavailability) [4]: 143
Ratio Estimate Fed vs Fasted, Cmax (relative bioavailability) [4]: 131
reduction of peak plasma concentration (Cmax) [5]: 38%
reduction of systemic exposure (AUC[l]) [5]: 15%
Cmax (both sexes, human, plasma, 1 hour after food (high-fat breakfast)): 298 ng/mL
half-life (both sexes, human, plasma, 1 hour after food, n = 9): 12 days
AUC (both sexes, human, plasma, 1 hour after food, n = 9, read-out: AUC(I)): 26800 ng·h/mL
AUC (both sexes, human, plasma, 1 hour after food, read-out: AUC(tf)): 23200 ng·h/mL
Cmax (both sexes, human, plasma, 2 hours after food (high-fat breakfast)): 355 ng/mL
half-life (both sexes, human, plasma, 2 hours after food, n = 9): 10.1 days
AUC (both sexes, human, plasma, 2 hours after food, n = 9, read-out: AUC(I)): 23400 ng·h/mL
AUC (both sexes, human, plasma, 2 hours after food, read-out: AUC(tf)): 22400 ng·h/mL
Cmax (both sexes, human, plasma, Fasted with antacid (20 mL Gaviscon extra-strength liquid)): 165 ng/mL
half-life (both sexes, human, plasma, Fasted with antacid, n = 18): 10.2 days
AUC (both sexes, human, plasma, Fasted with antacid, n = 18, read-out: AUC(I)): 15800 ng·h/mL
AUC (both sexes, human, plasma, Fasted with antacid, read-out: AUC(tf)): 15000 ng·h/mL
Cmax (both sexes, human, plasma, Fasted without antacid (after 10-hour fast), healthy subjects): 262 ng/mL
half-life (both sexes, human, plasma, Fasted without antacid, healthy subjects, n = 19): 10 days
AUC (both sexes, human, plasma, Fasted without antacid, healthy subjects, n = 19, read-out: AUC(I)): 18400 ng·h/mL
AUC (both sexes, human, plasma, Fasted without antacid, healthy subjects, read-out: AUC(tf)): 16800 ng·h/mL
half-life (both sexes, human, plasma, Fed (immediately with food), n = 18): 10.9 days
AUC (both sexes, human, plasma, Fed (immediately with food), n = 18, read-out: AUC(I)): 26600 ng·h/mL
AUC (both sexes, human, plasma, Fed (immediately with food), read-out: AUC(tf)): 22800 ng·h/mL
Cmax (both sexes, human, plasma, Fed (within 5 minutes of completing standardized high-fat breakfast)): 347 ng/mL
Tmax (both sexes, human, plasma, Fed (immediately with food), read-out: Tmax): 0.125 days
Ratio Estimate with vs without Antacid, AUC(I) (relative bioavailability) [6]: 85
Ratio Estimate with vs without Antacid, Cmax (relative bioavailability) [6]: 62
